Source: US10087142B2, “Azetidine derivatives useful as modulators of cortical cathecolaminergic neurotransmission” (Integrative Research Laboratories Sweden AB, priority 2015, dated 2018)
Like-named read-outs stand apart in the source and are kept apart here. Marks after values point to notes of the source that are not given here.

Tests used:
[1] = system: monoamine transmitters (NA, DA and 5-HT); assay: In vivo brain microdialysis of monoamines in striatum and frontal cortex; set-up: species or system rat; settings: rats; for response vs control in vivo at 16.7 µmol/kg: Rattus norvegicus, sc
Source text: The microdialysis technique (See, for instance, Collin and Ungerstedt, Microdialysis: user's guide, Carnegie Medicin, Stockholm, 1988) is a well-established technique for measuring extracellular levels of neurotransmitters (Ungerstedt, J Int Med, 1991, 230; 365-73). The microdialysis technique was used to measure the effect of compounds disclosed herein upon the efflux of monoamine transmitters (NA, DA and 5-HT) in striatum and frontal cortex in conscious, freely moving rats.
Male Sprague-Dawley rats weighing 280-320 g were used throughout the experiments. Before the experiment the animals were housed in groups, maximum five animals in each cage, with free access to water and food. The animals were housed at least one week prior to surgery and use in the experiments.
A modified version (Waters et al., J Neural Transm Gen Sect, 1994, 98(1); 39-55) of the I-shaped probe (Santiago and Westerink, N-S Arch Pharmacol, 1990, 342; 407-14) with the AN69 polyacrylonitrile/sodium methyl sulfonate copolymer (HOSPAL; o.d/i.d. 310/220 μm: dialysis membrane (Gambro, Lund, Sweden) was used in the microdialysis experiments. In the dorsal striatum, probes with an exposed length of 3 mm of dialysis membrane were used and in the prefrontal cortex the corresponding length was 2.5 mm. The rats were operated under isoflurane inhalation anesthesia while mounted into a Kopf stereotaxic instrument. Coordinates were calculated relative to bregma; dorsal striatum AP+1.0, ML±2.6, DV 6.2; Pf cortex, AP 15+3.2, ML+1.2, DV −4.08°, according to Paxinos and Watson (New York, Academic Press, 1986; FIG. 8 and FIG. 14). The dialysis probe was positioned in a burr hole under stereotaxic guidance and cemented with phosphatine dental cement (DAB Dental).
The rats were housed individually in cages for 48 h before the dialysis experiments, allowing them to recover from surgery and minimizing the risk of drug interactions with the anesthetics during the following experiments. During this period the rats had free access to food and water.
On the day of the experiment the rats were connected to a micro-perfusion pump via a swivel and were replaced in the cage where they could move freely within its confinements. The perfusion medium was a Ringer's solution containing (in mmol/I): NaCl; 140, CaCl2; 1.2, KCl; 3.0, MgCl2; 1.0 (Moghaddam and Bunney. Neurochem., 1989, 53; 652-4). The pump was set to a perfusion speed of 2 μl/min and 40 μl sample volume were collected every 20 min.
The rats were perfused for at least 40 min before sampling began. Five fractions of each 20 min were collected and the last three were used for the establishment of the baseline. After collection of baseline fractions, the pharmacological challenge to the dialysis experiment started. Test compounds were administrated by injection (s.c.) in a volume of 5 ml/kg, with 0.9% NaCl (saline) as vehicle.
The analytical method were based on two chromatographic separations dedicated for amines or acids. Two chromatographic systems shared a common auto injector with a 10-port valve and two sample loops for simultaneous injection on the two systems.
The acids were separated by reversed phase chromatography while the amines were separated by reversed phase ion pairing chromatography preceded by a reverse phase separation in a column switching configuration. Three separation columns (Luna C18 (2), dp 3 μm, 2 mm i.d., Phenomenex) of different lengths were used. Electrochemical detection was accomplished on glassy carbon electrodes (MF-1000, Bioanalytical Systems, Inc.)
The aqueous mobile phase (0.6 ml/min) for the acid system contained citric acid (40 mM, dipotassium hydrogen phosphate 10 mM, methanol 8-11% (v/v) and EDTA 0.1 mM. Column length was 30 mm and detection potential relative to Ag/AgCl reference was 0.74V. […]

[2] = system: non-pre-treated Sprague-Dawley rats; assay: Locomotor activity in drug-naïve rats (behaviour test); format: in vivo, rat; settings: recorded 60 minutes, n = 5
Procedure: The effect of compounds in the present disclosure on locomotor activity in drug-naïve rats was also investigated. The animals were placed in the motility meters immediately after drug administration and locomotor activity was recorded for 60 minutes (counts/60 min±SEM). The results are presented as percent of control.
Behavioural activity was measured using eight Digiscan activity monitors (RXYZM (16) TAO, Omnitech Electronics, Columbus, Ohio, USA), connected to an Omnitech Digiscan analyzer and an Apple Macintosh computer equipped with a digital interface board (NB DIO-24, National Instruments, USA). Each activity monitor consisted of a quadratic metal frame (W×L=40 cm×40 cm) equipped with photo beam sensors. During measurements of behavioural activity, a rat was put in a transparent acrylic cage (W×L×H, 40×40×30 cm) which in turn was placed in the activity monitor. Each activity monitor was equipped with three rows of infrared photo beam sensors, each row consisting of 16 sensors. Two rows were placed along the front and the side of the floor of the cage, at a 90° angle, and the third row was placed 10 cm above the floor to measure vertical activity. Photo beam sensors were spaced 2.5 cm apart. Each activity monitor was fitted in an identical sound and light attenuating box containing a weak house light and a fan.
The computer software was written using object oriented programming (LabVIEW™, National instruments, Austin, Tex., USA).
Behavioural data from each activity monitor, representing the position (horizontal center of gravity and vertical activity) of the animal at each time, were recorded at a sampling frequency of 25 Hz and collected using a custom written LABView™ application. The data from each recording session were stored and analyzed with respect to distance traveled. Each behavioural recording session lasted 60 min, starting approximately 5 min after the injection of test compound.
Compounds disclosed herein have been tested for effects on spontaneous locomotor activity in non-pre-treated Sprague-Dawley rats (based on accumulated distance traveled 0-60 min post dosing), and with doses up to 33 μmol/kg (s.c.).

[3] = 50 μmol/kg s.c., striatum dialysate
[4] = 16.7 μmol/kg s.c., striatum dialysate, read-out: DA Stri ± SEM, maximum effect compared to baseline
[5] = 16.7 μmol/kg s.c., frontal cortex dialysate, Fumarate Salt
[6] = 16.7 μmol/kg s.c., striatum dialysate, Fumarate Salt

SMILES | NA Stri ± SEM, maximum effect compared to baseline ([1]; 16.7 μmol/kg s.c., striatum dialysate) | 5-HT FC ± SEM, maximum effect compared to baseline ([1]; 50 μmol/kg s.c., frontal cortex dialysate) | 5-HT Stri ± SEM, maximum effect compared to baseline [1, 3] | DA Stri ± SEM, maximum effect compared to baseline [1, 3] | NA Stri ± SEM, maximum effect compared to baseline [1, 3] | response vs control in vivo at 16.7 µmol/kg ([1]; 16.7 μmol/kg s.c., frontal cortex dialysate, read-out: 5-HT FC ± SEM, maximum effect compared to baseline) [%] | response vs control in vivo at 16.7 µmol/kg ([1]; 16.7 μmol/kg s.c., frontal cortex dialysate, read-out: DA FC ± SEM, maximum effect compared to baseline) [%] | response vs control in vivo at 16.7 µmol/kg ([1]; 16.7 μmol/kg s.c., frontal cortex dialysate, read-out: NA FC ± SEM, maximum effect compared to baseline) [%] | response vs control in vivo at 16.7 µmol/kg ([1]; 16.7 μmol/kg s.c., striatum dialysate, read-out: 5-HT Stri ± SEM, maximum effect compared to baseline) [%] | response vs control in vivo at 16.7 µmol/kg [1, 4] [%] | locomotor activity, percent of control means ([2]; 11 μmol/kg s.c.) [%] | locomotor activity, percent of control means ([2]; 33 μmol/kg s.c.) [%] | 5-HT FC ± SEM, maximum effect compared to baseline [1, 5] | DA FC ± SEM, maximum effect compared to baseline [1, 5] | NA FC ± SEM, maximum effect compared to baseline [1, 5] | 5-HT Stri ± SEM, maximum effect compared to baseline [1, 6] | NA Stri ± SEM, maximum effect compared to baseline [1, 6]
Cl.Fc1cccc(C(F)C2CNC2)c1F (single isomer, unassigned; (-)) [Example 1, (−)-3-[(2,3-Difluorophenyl)(Fluoro)Methyl]Azetidine Hydrochloric Acid Salt] | 150 ± 30^c percent of control | 188 ± 16^c percent of control | 184^a percent of control | 204 ± 90^b percent of control | 145^a percent of control | 146 ± 8 | 495 ± 58 | 688 ± 102 | 171 ± 21 | 135 ± 19 | 61 | 91 |  |  |  |  | 
Fc1cc(F)cc(C(F)C2CNC2)c1.O=C(O)/C=C/C(=O)O (single isomer, unassigned; (-)) [Example 3, (−)-3-[(3,5-Difluorophenyl)(Fluoro)Methyl]Azetidine Fumarate Salt] |  |  |  |  |  |  |  |  |  | 116 ± 4 | 68 | 46 | 137 ± 16^c percent of control | 444 ± 51^c percent of control | 534 ± 45^c percent of control | 124 ± 6^c percent of control | 137^a percent of control
